Experimental data from ChEMBL document CHEMBL5058647, “Data for DCP probe JNJ-9350” (2022).
“And” between values parts separate entries of the source, which are not always exact repeats. Identical values can stand only once. The source made the active and inactive calls. The calls are words filed in the database; no cut-off is given here.

Tests used:
Rattus norvegicus = organism: Rattus norvegicus; conditions: Compound concentration 10.0 uM
[1] = target: Peroxisomal N(1)-acetyl-spermine/spermidine oxidase (Homo sapiens, UniProt Q6QHF9); assay: HyPerBlu POAX enzymatic assay
Spermine oxidase [2] = target: T1, Spermine oxidase (Homo sapiens, UniProt Q9NWM0); assay: Horseradish Peroxidase (HRP) Fluorescence Assay
[3] = target: 5-hydroxytryptamine receptor 2C (Homo sapiens) (UniProt P28335); conditions: Compound concentration 10.0 uM
[4] = target: T2, 5-hydroxytryptamine receptor 1B (Homo sapiens, UniProt P28222); conditions: Compound concentration 10.0 uM
[5] = target: Histamine H2 receptor (Homo sapiens) (UniProt P25021); conditions: Compound concentration 10.0 uM
[6] = target: D(1B) dopamine receptor (Homo sapiens) (UniProt P21918); conditions: Compound concentration 10.0 uM
[7] = target: Alpha-2B adrenergic receptor (Homo sapiens, UniProt P18089); assay: GPCRScan assay: inhibition of Alpha2B; parameters: radioligand conc. used [nm] 1.5 – 2.0, parental cells HEKT
[8] = target: Alpha-2A adrenergic receptor (Homo sapiens) (UniProt P08913); conditions: Compound concentration 10.0 uM
[9] = GPCRScan assay: inhibition of GABA/PBR; parameters: species or system Rattus norvegicus; radioligand conc. used [nm] 0.3 – 2.0, parental cells brain tissue
[10] = target: 5-hydroxytryptamine receptor 7 (Homo sapiens) (UniProt P34969); conditions: Compound concentration 10.0 uM
[11] = target: 5-hydroxytryptamine receptor 2A (Homo sapiens) (UniProt P28223); conditions: Compound concentration 10.0 uM
[12] = target: T3, Kappa-type opioid receptor (Homo sapiens, UniProt P41145); assay: kappa (h) (KOP) CEREP ligand profiling; conditions: filed as agonist, Compound concentration 10.0 uM
[13] = target: Melatonin receptor type 1A (Homo sapiens) (UniProt P48039); assay: MT1 (ML1A) (h) CEREP ligand profiling; conditions: filed as agonist, Compound concentration 10.0 uM
[14] = target: T4, 5-hydroxytryptamine receptor 2B (Homo sapiens, UniProt P41595); assay: 5-HT2B (h) CEREP ligand profiling; conditions: filed as agonist, Compound concentration 10.0 uM
[15] = target: Alpha-1A adrenergic receptor (Homo sapiens) (UniProt P35348); conditions: Compound concentration 10.0 uM
[16] = target: Sodium-dependent dopamine transporter (Homo sapiens, UniProt Q01959); conditions: Compound concentration 10.0 uM
[17] = target: T4, 5-hydroxytryptamine receptor 2B; assay: GPCRScan assay: inhibition of 5-HT2B; parameters: radioligand conc. used [nm] 1.0 – 2.0, parental cells stable HEK
[18] = target: 3',5'-cyclic-AMP phosphodiesterase 4D (Homo sapiens) (UniProt Q08499); assay: PDE4D2 (h) CEREP ligand profiling; conditions: Compound concentration 10.0 uM
[19] = target: Alpha-1D adrenergic receptor (Homo sapiens) (UniProt P25100); conditions: Compound concentration 10.0 uM
[20] = target: T5, Sigma intracellular receptor 2 (Homo sapiens, UniProt Q5BJF2); conditions: Compound concentration 10.0 uM
[21] = target: D(4) dopamine receptor (Homo sapiens) (UniProt P21917); conditions: Compound concentration 10.0 uM
[22] = target: Alpha-2A adrenergic receptor (Homo sapiens, UniProt P08913); assay: GPCRScan assay: inhibition of Alpha2A; parameters: radioligand conc. used [nm] 1.0 – 3.0, parental cells stable MDCK
[23] = target: T3, Kappa-type opioid receptor; conditions: Compound concentration 10.0 uM
[24] = target: Sodium-dependent serotonin transporter (Homo sapiens) (UniProt P31645); conditions: Compound concentration 10.0 uM
[25] = target: Alpha-2C adrenergic receptor (Homo sapiens) (UniProt P18825); conditions: Compound concentration 10.0 uM
[26] = target: 5-hydroxytryptamine receptor 2A (Homo sapiens) (UniProt P28223); assay: 5-HT2A (h) CEREP ligand profiling; conditions: filed as agonist, Compound concentration 10.0 uM
[27] = target: T2, 5-hydroxytryptamine receptor 1B; assay: 5-HT1B (h) CEREP ligand profiling; conditions: filed as antagonist, Compound concentration 10.0 uM
[28] = target: Adenosine receptor A2a (Homo sapiens) (UniProt P29274); assay: A2A (h CEREP ligand profiling; conditions: filed as agonist, Compound concentration 10.0 uM
[29] = target: 5-hydroxytryptamine receptor 1A (Homo sapiens) (UniProt P08908); conditions: Compound concentration 10.0 uM
[30] = target: T2, 5-hydroxytryptamine receptor 1B; assay: GPCRScan assay: inhibition of 5-HT1B; parameters: radioligand conc. used [nm] 0.6 – 1.5, parental cells stable HEK
D(3) dopamine receptor = D(3) dopamine receptor (Homo sapiens, UniProt P35462); conditions: Compound concentration 10.0 uM
[31] = target: T6, Muscarinic acetylcholine receptor M4 (Homo sapiens) (UniProt P08173); assay: M4 (h) CEREP ligand profiling; conditions: filed as antagonist, Compound concentration 10.0 uM
T6 sequence (whole entry): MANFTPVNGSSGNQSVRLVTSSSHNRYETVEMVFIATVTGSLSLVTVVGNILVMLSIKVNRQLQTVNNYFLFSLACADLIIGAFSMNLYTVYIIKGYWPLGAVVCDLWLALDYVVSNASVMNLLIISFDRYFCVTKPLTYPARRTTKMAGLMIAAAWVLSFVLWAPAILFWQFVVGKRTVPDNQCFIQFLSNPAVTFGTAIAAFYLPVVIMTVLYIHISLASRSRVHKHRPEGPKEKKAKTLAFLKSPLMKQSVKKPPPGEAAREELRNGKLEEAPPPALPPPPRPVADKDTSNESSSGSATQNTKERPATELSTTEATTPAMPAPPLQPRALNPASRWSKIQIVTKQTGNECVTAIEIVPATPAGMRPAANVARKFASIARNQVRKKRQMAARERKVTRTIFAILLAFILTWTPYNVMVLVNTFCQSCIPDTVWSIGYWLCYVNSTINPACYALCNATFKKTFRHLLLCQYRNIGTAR

[32] = target: Mu-type opioid receptor (Homo sapiens) (UniProt P35372); conditions: Compound concentration 10.0 uM
[33] = target: D(1A) dopamine receptor (Homo sapiens) (UniProt P21728); conditions: Compound concentration 10.0 uM
[34] = target: Lysine-specific histone demethylase 1A (Homo sapiens, UniProt O60341); assay: HyPerBlu KDM1A enzymatic assay
[35] = target: T4, 5-hydroxytryptamine receptor 2B; conditions: Compound concentration 10.0 uM
[36] = target: 5-hydroxytryptamine receptor 1E (Homo sapiens) (UniProt P28566); conditions: Compound concentration 10.0 uM
[37] = target: Histamine H3 receptor (Homo sapiens) (UniProt Q9Y5N1); conditions: Compound concentration 10.0 uM
[38] = target: T7, 5-hydroxytryptamine receptor 1D (Homo sapiens, UniProt P28221); assay: GPCRScan assay: inhibition of 5-HT1D; parameters: radioligand conc. used [nm] 1.0 – 2.0, parental cells HEKT
[39] = target: Muscarinic acetylcholine receptor M2 (Homo sapiens) (UniProt P08172); conditions: Compound concentration 10.0 uM
[40] = target: Histamine H4 receptor (Homo sapiens) (UniProt Q9H3N8); conditions: Compound concentration 10.0 uM
[41] = target: Muscarinic acetylcholine receptor M5 (Homo sapiens) (UniProt P08912); conditions: Compound concentration 10.0 uM
Homo sapiens = organism: Homo sapiens; assay: sigma (non-selective) (h) CEREP ligand profiling; conditions: filed as agonist, Compound concentration 10.0 uM
[42] = target: T6, Muscarinic acetylcholine receptor M4 (Homo sapiens); conditions: Compound concentration 10.0 uM
[43] = target: Substance-K receptor (Homo sapiens) (UniProt P21452); assay: NK2 (h) CEREP ligand profiling; conditions: filed as agonist, Compound concentration 10.0 uM
[44] = target: Sigma non-opioid intracellular receptor 1 (Homo sapiens) (UniProt Q99720); conditions: Compound concentration 10.0 uM
[45] = target: Beta-1 adrenergic receptor (Homo sapiens) (UniProt P08588); conditions: Compound concentration 10.0 uM
[46] = target: Beta-2 adrenergic receptor (Homo sapiens) (UniProt P07550); conditions: Compound concentration 10.0 uM
[47] = target: D(2) dopamine receptor (Homo sapiens) (UniProt P14416); conditions: Compound concentration 10.0 uM
[48] = target: Sodium-dependent noradrenaline transporter (Homo sapiens) (UniProt P23975); conditions: Compound concentration 10.0 uM
[49] = target: Cholecystokinin receptor type A (Homo sapiens) (UniProt P32238); assay: CCK1 (CCKA) (h) CEREP ligand profiling; conditions: filed as agonist, Compound concentration 10.0 uM
[50] = target: Beta-3 adrenergic receptor (Homo sapiens) (UniProt P13945); conditions: Compound concentration 10.0 uM
[51] = target: Adenosine receptor A1 (Homo sapiens) (UniProt P30542); assay: A1 (h) CEREP ligand profiling; conditions: filed as antagonist, Compound concentration 10.0 uM
[52] = target: T3, Kappa-type opioid receptor; assay: GPCRScan assay: inhibition of KOR; parameters: radioligand conc. used [nm] 0.6 – 1.2, parental cells stable HEK
[53] = target: T7, 5-hydroxytryptamine receptor 1D; conditions: Compound concentration 10.0 uM
[54] = target: Delta-type opioid receptor (Homo sapiens) (UniProt P41143); conditions: Compound concentration 10.0 uM
[55] = target: Alpha-2B adrenergic receptor (Homo sapiens) (UniProt P18089); conditions: Compound concentration 10.0 uM
[56] = target: 5-hydroxytryptamine receptor 5A (Homo sapiens) (UniProt P47898); conditions: Compound concentration 10.0 uM
[57] = target: Histamine H1 receptor (Homo sapiens) (UniProt P35367); conditions: Compound concentration 10.0 uM
[58] = target: Muscarinic acetylcholine receptor M3 (Homo sapiens) (UniProt P20309); conditions: Compound concentration 10.0 uM
[59] = target: 5-hydroxytryptamine receptor 3A (Homo sapiens) (UniProt P46098); conditions: Compound concentration 10.0 uM
Spermine oxidase [60] = target: T1, Spermine oxidase; assay: SMOX CETSA assay
[61] = target: T5, Sigma intracellular receptor 2; assay: GPCRScan assay: inhibition of Sigma 2; parameters: radioligand conc. used [nm] 5.0, parental cells HEKT
[62] = target: Adenosine receptor A3 (Homo sapiens) (UniProt P0DMS8); assay: A3 (h) CEREP ligand profiling; conditions: filed as agonist, Compound concentration 10.0 uM
[63] = target: Muscarinic acetylcholine receptor M1 (Homo sapiens) (UniProt P11229); conditions: Compound concentration 10.0 uM
[64] = target: Alpha-1B adrenergic receptor (Homo sapiens) (UniProt P35368); conditions: Compound concentration 10.0 uM
Alpha-1B adrenergic receptor (Homo sapiens), sequence (P35368 whole entry): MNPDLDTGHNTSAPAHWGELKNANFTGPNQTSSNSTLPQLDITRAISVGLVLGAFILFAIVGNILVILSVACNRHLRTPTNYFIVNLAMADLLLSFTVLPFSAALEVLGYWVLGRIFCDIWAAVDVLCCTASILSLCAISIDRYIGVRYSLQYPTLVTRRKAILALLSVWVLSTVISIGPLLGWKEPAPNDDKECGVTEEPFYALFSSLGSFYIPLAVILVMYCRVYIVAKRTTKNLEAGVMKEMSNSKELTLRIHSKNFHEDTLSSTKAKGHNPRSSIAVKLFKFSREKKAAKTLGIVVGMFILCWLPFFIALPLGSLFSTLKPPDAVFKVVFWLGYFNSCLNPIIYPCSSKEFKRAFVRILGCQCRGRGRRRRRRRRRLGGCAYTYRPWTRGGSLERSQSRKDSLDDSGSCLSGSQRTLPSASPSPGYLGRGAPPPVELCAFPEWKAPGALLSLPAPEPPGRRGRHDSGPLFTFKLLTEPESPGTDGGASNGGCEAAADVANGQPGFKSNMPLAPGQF

T4 sequence (P41595 whole entry): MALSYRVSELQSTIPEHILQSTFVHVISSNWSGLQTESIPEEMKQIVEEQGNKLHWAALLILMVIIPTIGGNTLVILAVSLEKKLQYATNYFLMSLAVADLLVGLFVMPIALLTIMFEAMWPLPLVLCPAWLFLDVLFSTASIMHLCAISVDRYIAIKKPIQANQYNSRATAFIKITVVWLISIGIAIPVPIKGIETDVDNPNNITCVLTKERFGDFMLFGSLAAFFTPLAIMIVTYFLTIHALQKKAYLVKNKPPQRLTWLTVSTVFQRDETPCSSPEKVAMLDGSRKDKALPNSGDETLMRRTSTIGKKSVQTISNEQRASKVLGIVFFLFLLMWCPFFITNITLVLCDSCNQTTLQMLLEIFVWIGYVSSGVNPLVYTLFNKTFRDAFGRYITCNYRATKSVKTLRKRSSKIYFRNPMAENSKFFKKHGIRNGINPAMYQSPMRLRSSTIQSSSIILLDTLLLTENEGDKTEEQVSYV
T2 sequence (P28222 whole entry): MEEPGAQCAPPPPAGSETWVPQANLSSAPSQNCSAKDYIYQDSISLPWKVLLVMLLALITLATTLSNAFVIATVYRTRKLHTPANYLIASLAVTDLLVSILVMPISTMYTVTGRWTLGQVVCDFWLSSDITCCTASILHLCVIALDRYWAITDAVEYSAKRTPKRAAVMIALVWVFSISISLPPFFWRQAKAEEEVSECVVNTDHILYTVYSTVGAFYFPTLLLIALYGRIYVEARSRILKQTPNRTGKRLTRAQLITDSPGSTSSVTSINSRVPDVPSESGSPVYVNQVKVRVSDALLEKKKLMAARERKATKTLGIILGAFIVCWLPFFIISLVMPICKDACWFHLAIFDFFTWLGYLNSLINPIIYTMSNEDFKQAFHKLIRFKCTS
T3 sequence (P41145 whole entry): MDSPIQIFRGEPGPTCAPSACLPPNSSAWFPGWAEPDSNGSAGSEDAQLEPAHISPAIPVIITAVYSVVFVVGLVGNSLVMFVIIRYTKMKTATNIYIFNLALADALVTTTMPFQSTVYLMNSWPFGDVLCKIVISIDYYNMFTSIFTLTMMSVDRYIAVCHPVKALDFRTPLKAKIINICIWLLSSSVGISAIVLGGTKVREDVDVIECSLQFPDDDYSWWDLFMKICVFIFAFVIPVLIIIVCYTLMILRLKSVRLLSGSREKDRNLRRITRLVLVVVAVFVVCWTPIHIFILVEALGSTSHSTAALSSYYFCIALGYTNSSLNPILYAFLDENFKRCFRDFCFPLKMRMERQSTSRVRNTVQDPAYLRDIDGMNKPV
T7 sequence (P28221 whole entry): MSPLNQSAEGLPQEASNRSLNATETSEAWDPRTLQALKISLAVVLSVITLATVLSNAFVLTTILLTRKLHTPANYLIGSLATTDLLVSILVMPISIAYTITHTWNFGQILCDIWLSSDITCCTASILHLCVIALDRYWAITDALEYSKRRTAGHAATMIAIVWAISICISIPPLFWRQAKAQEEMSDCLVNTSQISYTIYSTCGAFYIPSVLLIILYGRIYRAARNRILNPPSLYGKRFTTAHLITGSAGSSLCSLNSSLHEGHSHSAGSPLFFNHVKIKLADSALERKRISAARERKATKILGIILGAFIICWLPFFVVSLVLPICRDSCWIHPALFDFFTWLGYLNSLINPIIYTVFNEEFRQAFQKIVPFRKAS
5-hydroxytryptamine receptor 2A (Homo sapiens), sequence (P28223 whole entry): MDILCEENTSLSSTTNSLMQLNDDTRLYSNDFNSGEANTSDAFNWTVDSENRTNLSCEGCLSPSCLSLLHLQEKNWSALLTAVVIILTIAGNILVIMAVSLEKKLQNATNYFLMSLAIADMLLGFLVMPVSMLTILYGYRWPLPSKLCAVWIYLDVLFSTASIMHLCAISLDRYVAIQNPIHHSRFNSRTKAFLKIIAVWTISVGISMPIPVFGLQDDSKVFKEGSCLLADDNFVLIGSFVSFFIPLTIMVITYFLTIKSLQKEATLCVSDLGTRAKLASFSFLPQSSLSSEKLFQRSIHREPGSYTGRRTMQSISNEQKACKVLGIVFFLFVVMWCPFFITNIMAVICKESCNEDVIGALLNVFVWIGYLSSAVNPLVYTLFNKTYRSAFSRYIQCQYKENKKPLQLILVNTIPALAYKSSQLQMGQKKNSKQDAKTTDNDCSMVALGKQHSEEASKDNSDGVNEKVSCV
T1 sequence (Q9NWM0 whole entry): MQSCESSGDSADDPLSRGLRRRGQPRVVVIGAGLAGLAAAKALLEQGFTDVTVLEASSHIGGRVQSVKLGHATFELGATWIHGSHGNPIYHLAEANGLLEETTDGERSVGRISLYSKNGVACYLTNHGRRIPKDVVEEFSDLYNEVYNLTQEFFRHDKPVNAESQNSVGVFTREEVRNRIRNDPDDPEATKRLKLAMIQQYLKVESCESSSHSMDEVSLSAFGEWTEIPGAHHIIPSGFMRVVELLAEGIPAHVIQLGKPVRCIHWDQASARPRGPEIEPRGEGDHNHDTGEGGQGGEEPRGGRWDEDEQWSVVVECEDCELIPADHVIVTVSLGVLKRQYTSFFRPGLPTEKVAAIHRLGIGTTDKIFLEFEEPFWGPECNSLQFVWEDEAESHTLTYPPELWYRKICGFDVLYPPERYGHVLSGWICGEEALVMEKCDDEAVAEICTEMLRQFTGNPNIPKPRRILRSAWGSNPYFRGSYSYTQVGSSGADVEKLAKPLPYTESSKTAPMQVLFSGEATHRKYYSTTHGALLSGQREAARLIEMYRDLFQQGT
T5 sequence (Q5BJF2 whole entry): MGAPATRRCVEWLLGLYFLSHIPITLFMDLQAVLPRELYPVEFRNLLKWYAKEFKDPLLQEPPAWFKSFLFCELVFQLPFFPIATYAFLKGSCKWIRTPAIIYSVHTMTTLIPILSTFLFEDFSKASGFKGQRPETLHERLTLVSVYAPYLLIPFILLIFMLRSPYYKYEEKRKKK
D(2) dopamine receptor (Homo sapiens), sequence (P14416 whole entry): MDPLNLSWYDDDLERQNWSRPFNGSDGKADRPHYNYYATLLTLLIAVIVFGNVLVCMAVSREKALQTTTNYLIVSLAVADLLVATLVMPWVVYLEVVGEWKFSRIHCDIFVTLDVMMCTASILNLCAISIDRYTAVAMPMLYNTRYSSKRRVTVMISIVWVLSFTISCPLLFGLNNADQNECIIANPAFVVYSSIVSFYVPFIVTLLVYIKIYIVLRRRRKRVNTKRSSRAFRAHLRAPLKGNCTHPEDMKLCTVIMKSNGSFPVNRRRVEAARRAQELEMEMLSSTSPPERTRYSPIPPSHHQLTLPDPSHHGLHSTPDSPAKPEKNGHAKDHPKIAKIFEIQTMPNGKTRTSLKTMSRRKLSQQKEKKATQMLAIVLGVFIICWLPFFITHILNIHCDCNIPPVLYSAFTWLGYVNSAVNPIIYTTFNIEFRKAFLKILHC
5-hydroxytryptamine receptor 7 (Homo sapiens), sequence (P34969 whole entry): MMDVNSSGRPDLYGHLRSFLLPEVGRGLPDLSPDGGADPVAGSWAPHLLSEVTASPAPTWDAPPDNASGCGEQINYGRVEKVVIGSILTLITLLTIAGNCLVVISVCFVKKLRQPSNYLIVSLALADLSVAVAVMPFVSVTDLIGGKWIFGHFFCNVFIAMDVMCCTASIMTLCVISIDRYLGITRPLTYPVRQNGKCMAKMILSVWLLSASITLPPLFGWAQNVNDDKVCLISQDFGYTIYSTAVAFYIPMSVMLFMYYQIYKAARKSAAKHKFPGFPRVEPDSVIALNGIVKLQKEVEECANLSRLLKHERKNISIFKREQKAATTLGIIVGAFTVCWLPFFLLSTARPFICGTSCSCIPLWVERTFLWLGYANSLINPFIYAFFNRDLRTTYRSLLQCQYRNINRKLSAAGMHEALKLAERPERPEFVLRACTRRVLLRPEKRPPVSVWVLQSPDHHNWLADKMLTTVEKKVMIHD
Histamine H1 receptor (Homo sapiens), sequence (P35367 whole entry): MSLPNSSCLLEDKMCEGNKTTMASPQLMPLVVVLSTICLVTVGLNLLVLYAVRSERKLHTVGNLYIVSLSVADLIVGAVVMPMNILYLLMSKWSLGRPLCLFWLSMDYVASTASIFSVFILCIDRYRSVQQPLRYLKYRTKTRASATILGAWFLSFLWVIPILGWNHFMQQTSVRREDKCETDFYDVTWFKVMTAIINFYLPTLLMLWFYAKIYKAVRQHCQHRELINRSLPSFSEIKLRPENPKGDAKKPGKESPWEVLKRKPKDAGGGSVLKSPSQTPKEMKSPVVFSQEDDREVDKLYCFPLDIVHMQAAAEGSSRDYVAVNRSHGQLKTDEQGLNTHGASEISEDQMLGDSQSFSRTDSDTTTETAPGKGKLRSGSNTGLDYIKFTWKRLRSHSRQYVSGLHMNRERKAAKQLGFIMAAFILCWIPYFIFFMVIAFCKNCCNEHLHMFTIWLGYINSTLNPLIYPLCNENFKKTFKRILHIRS

inhibition (Rattus norvegicus): 114% | IC50 [1]: 790 nM (not active) | Ki (Spermine oxidase [2]): 9.9 nM (active) | inhibition [3]: 28.4% | inhibition [4]: 104% | inhibition [5]: 26.9% | inhibition [6]: 20.4% | Ki [7]: 3580 nM | inhibition [8]: 64% | Ki [9]: 498 nM | pKi [9]: 6.3 | inhibition [10]: 8.26% | inhibition [11]: 27.4% | inhibition [12]: 74.1% | inhibition [13]: 58.8% | inhibition [14]: 68.5% | inhibition [15]: 3.52% | inhibition [16]: 47.7% | Ki [17]: 897 nM | inhibition [18]: 63% | inhibition [19]: 28.1% | inhibition [20]: 76.7% | inhibition [21]: 20.9% | Ki [22]: 3830 nM | inhibition [23]: 73.3% | inhibition [24]: 16.6% | inhibition [25]: 20.1% | inhibition [26]: 69.9% | inhibition [27]: 62.1% | inhibition [28]: 75% | inhibition [29]: 13.1% | Ki ([30]; read-out: Ki): 478 nM | Ki ([30]; read-out: pKi (converted)): 407 nM | inhibition (D(3) dopamine receptor): 40.5% | inhibition [31]: 59.8% | inhibition [32]: 24.8% | inhibition [33]: 28.9% | IC50 [34]: > 60000 nM (not active) | inhibition [35]: 57.9% | inhibition [36]: 0.95% | inhibition [37]: -7.55% | Ki ([38]; read-out: Ki): 318 nM and 219 nM | Ki ([38]; read-out: pKi (converted)): 195 nM | inhibition [39]: 24.3% | inhibition [40]: 32.6% | inhibition [41]: 37.9% | inhibition (Homo sapiens): 62.8% | inhibition [42]: 36.6% | inhibition [43]: 56.8% | inhibition [44]: 30.5% | inhibition [45]: 2.96% | inhibition [46]: -4.5% | inhibition [47]: 25.3% | inhibition [48]: 46% | inhibition [49]: 70.3% | inhibition [50]: -7.92% | inhibition [51]: 98.9% | Ki [52]: 1170 nM | inhibition [53]: 101% | inhibition [54]: 17.1% | inhibition [55]: 42.2% | inhibition [56]: 17.5% | inhibition [57]: 4.87% | inhibition [58]: 32% | inhibition [59]: 25.6% | IC50 (Spermine oxidase [60]): 1200 nM (active) | Ki [61]: 1920 nM | inhibition [62]: 75.1% | inhibition [63]: 24.8% | inhibition [64]: 10.2%
SMILES: O=C(NCCCn1ccnc1)c1cc2nc(-c3ccccc3)cc(-c3ccccc3)n2n1
